What follows are compounds tested against DCN1 (Homo sapiens (Human), UniProt Q96GG9) (assay: TR-FRET binding assay (biotin-DCN1 / Ac-UBE2M12-AlexaFluor488)). Conditions: mean ± SD (n); read-out: DCN1_TRFRET Mean EC50.
Sequence of DCN1 (Q96GG9 whole entry): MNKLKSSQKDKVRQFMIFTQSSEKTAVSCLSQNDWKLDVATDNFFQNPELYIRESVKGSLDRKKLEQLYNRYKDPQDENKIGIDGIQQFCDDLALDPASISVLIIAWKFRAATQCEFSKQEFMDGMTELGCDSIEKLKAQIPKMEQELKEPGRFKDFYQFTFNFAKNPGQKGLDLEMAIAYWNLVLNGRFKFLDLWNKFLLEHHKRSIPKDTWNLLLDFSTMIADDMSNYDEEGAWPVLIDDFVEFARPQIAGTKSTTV
Protocol: • IC50 values were generated using our TR-FRET binding assay and are represented as the mean of three replicates with errors reported as the standard deviation.
The assay cocktail was then incubated for 1 h at room temperature and distributed using a WellMate instrument (Matrix). Compounds to be screened were added to assay plates from DMSO stock solutions by pin transfer using 50SS pins (V&P Scientific). […] All compounds were tested in triplicate or more.
In the case of `CCC(C)n1nc(C)c2c1N(CC)C(=O)[C@@H](NC(=O)c1cccc(C)c1)[C@H]2c1ccc(F)cc1` (stereo partly drawn) [RG-0008861, N-[(4S,5S)-1-(butan-2-yl)-7-ethyl-4-(4-fluorophenyl)-3-methyl-6-oxo-1H,4H,5H,6H,7H-pyrazolo[3,4-b]pyridin-5-yl]-3-methylbenzamide], the EC50 is reported as 827 ± 371 nM. `CCCn1nc(C)c2c1N(C)C(=O)[C@@H](NC(=O)c1cccc(C)c1)[C@H]2c1ccc(F)cc1` [RG-0007411, N-[(4S,5S)-4-(4-fluorophenyl)-3,7-dimethyl-6-oxo-1-propyl-1H,4H,5H,6H,7H-pyrazolo[3,4-b]pyridin-5-yl]-3-methylbenzamide] showed an EC50 of 585 ± 106 nM. In the case of `CCN1C(=O)[C@@H](NC(=O)c2cccc(C(F)(F)F)c2)[C@@H](c2ccc(F)cc2)c2c(CNS(N)(=O)=O)nn(-c3ccccc3)c21` [RG-0014161, N-[(4S,5S)-7-ethyl-4-(4-fluorophenyl)-6-oxo-1-phenyl-3-[(sulfamoylamino)methyl]-1H,4H,5H,6H,7H-pyrazolo[3,4-b]pyridin-5-yl]-3-(trifluoromethyl)benzamide], the EC50 is reported as 145 ± 26.2 nM. With `CCN1C[C@@H](NC(=O)c2cccc(C)c2)[C@@H](c2ccc(F)cc2)c2c(C)nn(-c3ccccc3)c21` [RG-0009507, N-[(4S,5S)-7-ethyl-4-(4-fluorophenyl)-3-methyl-1-phenyl-1H,4H,5H,6H,7H-pyrazolo[3,4-b]pyridin-5-yl]-3-methylbenzamide] the EC50 was > 36500 nM. `CCN1C(=O)[C@@H](NC(=O)c2cccc(C(F)(F)F)c2)[C@@H](c2ccc(F)cc2)c2c(CNC(=O)CCOCCOCCOCCOCCNC(=O)CCCCC3SCC4NC(=O)NC43)nn(-c3ccccc3)c21` (stereo partly drawn) [RG-0014148, N-{[(4S,5S)-7-ethyl-4-(4-fluorophenyl)-6-oxo-1-phenyl-5-[3-(trifluoromethyl)benzamido]-1H,4H,5H,6H,7H-pyrazolo[3,4-b]pyridin-3-yl]methyl}-1-(5-{2-oxo-hexahydro-1H-thieno[3,4-d]imidazol-4-yl}pentanamido)-3,6,9,12-tetraoxapentadecan-15-amide] gave an EC50 of 102 ± 15.9 nM. `CCN1C(=O)[C@@H](NC(=O)c2cccc(C)c2)[C@@H](c2ccc(F)cc2)c2c(C)nn(-c3ccccc3F)c21` [RG-0008870, N-[(4S,5S)-7-ethyl-1-(2-fluorophenyl)-4-(4-fluorophenyl)-3-methyl-6-oxo-1H,4H,5H,6H,7H-pyrazolo[3,4-b]pyridin-5-yl]-3-methylbenzamide] was tested, and the EC50 was 187 ± 5.73 nM. `CCN1C(=O)[C@@H](NC(=O)c2cccc(C(F)(F)F)c2)[C@@H](c2ccc(F)cc2)c2c(CN3CCN(C(=O)OC(C)(C)C)CC3)nn(-c3ccccc3)c21` [RG-0014059, tert-butyl 4-{[(4S,5S)-7-ethyl-4-(4-fluorophenyl)-6-oxo-1-phenyl-5-[3-(trifluoromethyl)benzamido]-1H,4H,5H,6H,7H-pyrazolo[3,4-b]pyridin-3-yl]methyl}piperazine-1-carboxylate] showed an EC50 of 231 ± 16.5 nM. Compound `CCN1C(=O)[C@@H](NC(=O)c2cccc(C)c2)[C@@H](c2ccc(F)cc2)c2c(CO)nn(-c3ccccc3)c21` [RG-0008880, N-[(4S,5S)-7-ethyl-4-(4-fluorophenyl)-3-(hydroxymethyl)-6-oxo-1-phenyl-1H,4H,5H,6H,7H-pyrazolo[3,4-b]pyridin-5-yl]-3-methylbenzamide] has an EC50 of 173 ± 29.7 nM. Work on `CCN1C(=O)[C@@H](NC(=O)c2cccc(C(F)(F)F)c2)[C@@H](c2cncs2)c2c(C)nn(-c3ccccc3)c21` [RG-0014005, N-[(4S,5S)-7-ethyl-3-methyl-6-oxo-1-phenyl-4-(1,3-thiazol-5-yl)-1H,4H,5H,6H,7H-pyrazolo[3,4-b]pyridin-5-yl]-3-(trifluoromethyl)benzamide] yielded an EC50 of 1920 ± 75.2 nM. With `CCOC1=Nc2c(c(C)nn2-c2ccccc2)[C@H](c2ccc(F)cc2)[C@@H]1NC(=O)c1cccc(C(F)(F)F)c1` [RG-0009518, N-[(4S,5S)-6-ethoxy-4-(4-fluorophenyl)-3-methyl-1-phenyl-1H,4H,5H-pyrazolo[3,4-b]pyridin-5-yl]-3-(trifluoromethyl)benzamide] the EC50 was > 36500 nM. For `Cc1nn(-c2ccccc2)c2c1[C@H](c1ccc(F)cc1)[C@H](NC(=O)c1cccc(C(F)(F)F)c1)C(=O)N2C` [RG-0008885, N-[(4S,5S)-4-(4-fluorophenyl)-3,7-dimethyl-6-oxo-1-phenyl-1H,4H,5H,6H,7H-pyrazolo[3,4-b]pyridin-5-yl]-3-(trifluoromethyl)benzamide], the EC50 was 943 ± 86.3 nM. `Cc1cccc(C(=O)N[C@@H]2CNc3c(c(C)nn3-c3ccccc3)[C@@H]2c2ccc(F)cc2)c1` [RG-0009506, N-[(4S,5S)-4-(4-fluorophenyl)-3-methyl-1-phenyl-1H,4H,5H,6H,7H-pyrazolo[3,4-b]pyridin-5-yl]-3-methylbenzamide] was tested, and the EC50 was > 36500 nM. With `CCN1C(=O)[C@@H](NC(=O)c2cccc(F)c2)[C@@H](c2ccc(F)cc2)c2c(C)nn(-c3ccccc3)c21` [RG-0013062, N-[(4S,5S)-7-ethyl-4-(4-fluorophenyl)-3-methyl-6-oxo-1-phenyl-1H,4H,5H,6H,7H-pyrazolo[3,4-b]pyridin-5-yl]-3-fluorobenzamide] the EC50 was 1810 ± 153 nM. Work on `CCN1C(=O)[C@@H](NC(=O)c2cc(C)cc(F)c2)[C@@H](c2ccc(F)cc2)c2c(C)nn(-c3ccccc3)c21` [RG-0013053, N-[(4S,5S)-7-ethyl-4-(4-fluorophenyl)-3-methyl-6-oxo-1-phenyl-1H,4H,5H,6H,7H-pyrazolo[3,4-b]pyridin-5-yl]-3-fluoro-5-methylbenzamide] yielded an EC50 of 2330 ± 105 nM. Work on `CCN1C(=O)[C@@H](NC(=O)c2cccc(C(F)(F)F)c2)[C@@H](c2ccc(F)c(C(F)(F)F)c2)c2c(C)nn(-c3ccccc3)c21` [RG-0013990, N-[(4S,5S)-7-ethyl-4-[4-fluoro-3-(trifluoromethyl)phenyl]-3-methyl-6-oxo-1-phenyl-1H,4H,5H,6H,7H-pyrazolo[3,4-b]pyridin-5-yl]-3-(trifluoromethyl)benzamide] yielded an EC50 of 4810 ± 152 nM. With `CCN1C(=O)[C@@H](NC(=O)c2cccc(C(F)(F)F)c2)[C@@H](c2ccc(F)cc2)c2c(CBr)nn(-c3ccccc3)c21` [RG-0014144, N-[(4S,5S)-3-(bromomethyl)-7-ethyl-4-(4-fluorophenyl)-6-oxo-1-phenyl-1H,4H,5H,6H,7H-pyrazolo[3,4-b]pyridin-5-yl]-3-(trifluoromethyl)benzamide] the EC50 was 186 ± 32.6 nM. Work on `CCN1C(=O)[C@@H](NC(=O)c2cccc(C(F)(F)F)c2)[C@@H](c2ccc(F)cc2)c2c(COC(C)=O)nn(-c3ccccc3)c21` [RG-0013839, [(4S,5S)-7-ethyl-4-(4-fluorophenyl)-6-oxo-1-phenyl-5-[3-(trifluoromethyl)benzamido]-1H,4H,5H,6H,7H-pyrazolo[3,4-b]pyridin-3-yl]methyl acetate] yielded an EC50 of 116 ± 13.2 nM. Compound `CCN1C(=O)[C@@H](NC(=O)c2cccc(C)c2)[C@@H](c2ccc(F)cc2)c2c(C)nn(C3CCCCC3)c21` [RG-0008877, N-[(4S,5S)-1-cyclohexyl-7-ethyl-4-(4-fluorophenyl)-3-methyl-6-oxo-1H,4H,5H,6H,7H-pyrazolo[3,4-b]pyridin-5-yl]-3-methylbenzamide] has an EC50 of 835 ± 34.8 nM. For `CCN1C(=O)[C@@H](NC(=O)c2cccc(C)c2)[C@@H](c2ccc(F)cc2)c2c(CN)nn(-c3ccccc3)c21` [RG-0009512, N-[(4S,5S)-3-(aminomethyl)-7-ethyl-4-(4-fluorophenyl)-6-oxo-1-phenyl-1H,4H,5H,6H,7H-pyrazolo[3,4-b]pyridin-5-yl]-3-methylbenzamide], the EC50 was 171 ± 17.9 nM.

From patent publication US12409171B2, “Pharmaceutically active pyrazolo-pyridone modulators of DCN1/2-mediated cullin neddylation” (UNIVERSITY OF KENTUCKY RESEARCH FOUNDATION, priority 2019, dated 2025)
